In data set [1] the test system is patients with type 2 diabetes. The data set can be described thus: Venous occlusion plethysmography: forearm blood flow response to intra-brachial acetylcholine. Format: in vivo, human. To be noted: 12 weeks; for mean change on treatment (Week 12-Week 0) in acetylcholine AUC percent increase in forearm blood flow ratio: single treatment group, 200 mg once daily each agent, ACh 7.5, 15 and 30 μg/min, aspirin pretreatment.
Experimental: Evaluations of vascular function were carried out by bilateral venous occlusion plethysmography at weeks 0 and 12. These consisted of serial measurements of forearm blood flow before and after intra-brachial artery infusion of acetylcholine (ACh 7.5, 15 and 30 μg/min), sodium nitroprusside (SNP 1.5, 3 and 10 μg/min) and N^G-monomethyl-L-arginine (L-NMMA 4 μmol/l). […] Pretreatment with acetylsalicylic acid (aspirin) (650 mg daily taken orally) was given for one week to block prostacyclin and thromboxane generation.
Plethysmography studies were performed during a 5 minute infusion of each agent, diluted in saline and infused at a rate of 1 mL/min into the brachial artery of the non-dominant arm via a thin plastic cannula Each infusion of vasoactive agents was preceded by a period of saline infusion. Bilateral forearm blood flow was measured simultaneously at 15 second intervals for the final two minutes of each 5 minute infusion period employing mercury-in-silastic strain gauges. During measurements hands were excluded from the circulation by inflation of wrist cuffs to 200 mmHg and venous occlusion was obtained by cyclical inflation of upper arm cuffs to 40 mmHg. Results were expressed as the area under the curve (AUC) of the percent increase in forearm blood flow ratio (infused arm versus control arm) to account for any systemic effect of these vasoactive drugs. The AUC provided integration over time of the dose response to the agent used. AUC for percent change in blood flow to ACh was a priori described as the primary efficacy criterion in this trial.
Statistical analyses were performed using 2 by 2 analysis of variance using SPSS package

Data set [2] has as its system patients with type 2 diabetes. The data set can be described thus: Venous occlusion plethysmography: forearm blood flow response to acetylcholine with co-infusion of L-NMMA. Format: in vivo, human. To be noted: 12 weeks. As for the experimental part: (§1) Male or female patients aged less than 70 years and without severe obesity (Body Mass Index below 35 kg/m^2) were included after a 6 week run-in period if they had Haemoglobin A1c below 9%, total cholesterol below 6.5 mmol/l and either triglyceride above 1.8 mmol/l or HDL cholesterol below 1 mmol/l. The two therapeutic agents alone or in combination were given each as 200 mg once daily. Capsules identical in appearance to each agent but containing placebo were given to maintain the double-blind nature of the study.
(§2) Evaluations of vascular function were carried out by bilateral venous occlusion plethysmography at weeks 0 and 12. […]
(§3) Plethysmography studies were performed during a 5 minute infusion of each agent, diluted in saline and infused at a rate of 1 mL/min into the brachial artery of the non-dominant arm via a thin plastic cannula Each infusion of vasoactive agents was preceded by a period of saline infusion. Bilateral forearm blood flow was measured simultaneously at 15 second intervals for the final two minutes of each 5 minute infusion period employing mercury-in-silastic strain gauges. […] Results were expressed as the area under the curve (AUC) of the percent increase in forearm blood flow ratio (infused arm versus control arm) to account for any systemic effect of these vasoactive drugs. […]

The subject of data set [3] is patients with type 2 diabetes. Put plainly: Venous occlusion plethysmography: forearm blood flow response to intra-brachial sodium nitroprusside. Particulars: 12 weeks. Format: in vivo, human. As for the experimental part:
as §1, §2, §3

Data set [4] in a line: CoQ10 plasma levels after treatment. Particulars: 12 weeks, 200 mg once daily each. Format: in vivo, human. As for the experimental part:
as §1

Data set [5] relates to patients with type 2 diabetes. The data set can be described thus: Lipids, diabetes control and blood pressure in the randomized clinical trial. It counts as in vivo, human. To be noted: 12 weeks, 200 mg once daily. As for the experimental part: as §1
Data set [6] has as its system patient. Particulars: for the patient; cited from earlier work.
[7] abbreviates: pooled groups of the 2×2 design: all patients on the agent, with or without the other agent.

`COC1=C(OC)C(=O)C(C/C=C(\C)CC/C=C(\C)CC/C=C(\C)CC/C=C(\C)CC/C=C(\C)CC/C=C(\C)CC/C=C(\C)CC/C=C(\C)CC/C=C(\C)CCC=C(C)C)=C(C)C1=O` [Q, coenzyme Q10]: the “mean change on treatment (Week 12-Week 0) in acetylcholine AUC percent increase in forearm blood flow ratio, factorial margin (F+ or Q+)” value in data set [1] (setting [7]) came out at 206% [119% to. Further, the “mean change on treatment (Week 12-Week 0) in acetylcholine AUC percent increase in forearm blood flow ratio” value is −7% [−119% in data set [1] and “no change” in data set [1] (listed as CoQ10). Besides, the “mean change on treatment (Week 12-Week 0) in acetylcholine percent increase in forearm blood flow ratio with co-infusion of L-NMMA, factorial margin (F+ or Q+)” value in data set [2] (setting [7]) is 48% [6% to 90%]. Moreover, the “mean change on treatment (Week 12-Week 0) in acetylcholine percent increase in forearm blood flow ratio with co-infusion of L-NMMA” value in data set [2] (single treatment group, 200 mg once daily each agent) was −21% [−76% to. The “mean change on treatment (Week 12-week 0) in sodium nitroprusside AUC percent increase in forearm blood flow ratio, factorial margin (F+ or Q+)” value in data set [3] (setting [7]) came to 822% [399% to. In data set [3] (single treatment group, 200 mg once daily each agent, SNP 1.5, 3 and 10 μg/min), the “mean change on treatment (Week 12-week 0) in sodium nitroprusside AUC percent increase in forearm blood flow ratio” value turned out to be 50% [−641% to. Moreover, the “plasma levels of CoQ10 after treatment, CoQ10 alone versus combination groups” value in data set [4] is listed as “did not differ”. The lipid lowering effects entry in data set [5] is “no lipid lowering effects”. Besides, the “dose previously demonstrated to be safe” value in data set [6] was “up to 300 mg daily”.

Values taken from patent US7410983B2 (Fournier Laboratories Ireland Limited, priority 2000, dated 2008).
